Values of other authors in paper PMC3459150 (Atherosclerosis, 2012).

Tests used:
apoE null mice = conditions: chronic administration
[1] = apo E null mice
[2] = test system: dyslipidemic mouse models

Sequence | Atheroprotection / inhibition of atherosclerosis (apoE null mice) | Half-time of clearance, rapid phase ([1]; intravenous, bi-phasic) | Half-time of clearance, slow phase ([1]; intravenous, bi-phasic) | Half-time of clearance ([1]; peritoneally-injected) | Inhibition of atherosclerosis [2] | Plasma cholesterol levels [2]
LRKLRKRLLRDWLKAFYDKVAEKLKEAF [Ac-hE18A-NH2] | inhibits atherosclerosis | 0.027 h | 1.61 h | – | – | –
DWFKAFYDKVAEKFKEAF [4F] | – | – | – | 2.01 h | able to inhibit atherosclerosis | without changing plasma cholesterol levels
